In the NIST ThermoML archive (doi:10.1016/j.jct.2015.02.020):
± gives the expanded uncertainty stated by the source.

Legend:
[1] = 101.33 kPa, Liquid; for viscosity: Falling or rolling sphere viscometry; for speed of sound: Sing-around technique in a fixed-path interferometer; for mass density: Vibrating tube method
[2] = refractive index (Na D-line) (dimensionless); details: 101.33 kPa, Liquid, Standard Abbe refractometry

CC[n+]1ccc(C)cc1.O=S(=O)([N-]S(=O)(=O)C(F)(F)F)C(F)(F)F
Details	mass density, [1] [kg/m3]	refractive index, [2]	speed of sound, [1] [m/s]	viscosity, [1] [mPa·s]
293.15 K	1491.6 ± 0.67	1.44562 ± 0.00037	1275.3 ± 1.5	40.01 ± 0.87
298.15 K	1486.67 ± 0.66	1.44412 ± 0.00037	1263.8 ± 1.5	32.83 ± 0.72
303.15 K	1481.76 ± 0.66	1.4426 ± 0.00037	1252.4 ± 1.5	27.39 ± 0.6
308.15 K	1476.87 ± 0.65	1.44108 ± 0.00037	1241.2 ± 1.5	23.17 ± 0.51
313.15 K	1472 ± 0.65	1.43954 ± 0.00037	1230.1 ± 1.5	19.8 ± 0.43
318.15 K	1467.15 ± 0.64	1.43794 ± 0.00037	1219.2 ± 1.5	17.17 ± 0.37
323.15 K	1462.32 ± 0.64	1.43641 ± 0.00037	1208.3 ± 1.5	15 ± 0.33
328.15 K	1457.52 ± 0.63	1.43493 ± 0.00037	1197.3 ± 1.5	13.26 ± 0.29
333.15 K	1452.73 ± 0.63	1.43344 ± 0.00037	1187 ± 1.5	11.82 ± 0.26
338.15 K	1447.96 ± 0.62	1.43195 ± 0.00037	1176.5 ± 1.5	10.57 ± 0.23
343.15 K	1443.21 ± 0.62	1.43047 ± 0.00037	1166.1 ± 1.5	9.51 ± 0.21

CC[n+]1cccc(C)c1.O=S(=O)([N-]S(=O)(=O)C(F)(F)F)C(F)(F)F
Details	mass density, [1] [kg/m3]	refractive index, [2]	speed of sound, [1] [m/s]	viscosity, [1] [mPa·s]
293.15 K	1493.4 ± 0.67	1.44503 ± 0.00037	1270.6 ± 1.5	47.85 ± 1.1
298.15 K	1488.54 ± 0.66	1.44355 ± 0.00037	1259.6 ± 1.5	39.08 ± 0.85
303.15 K	1483.69 ± 0.66	1.44204 ± 0.00037	1248.5 ± 1.5	32.33 ± 0.71
308.15 K	1478.86 ± 0.65	1.44056 ± 0.00037	1237.5 ± 1.5	27.12 ± 0.59
313.15 K	1474.05 ± 0.65	1.43904 ± 0.00037	1226.7 ± 1.5	23.06 ± 0.5
318.15 K	1469.26 ± 0.65	1.43751 ± 0.00037	1216 ± 1.5	19.81 ± 0.43
323.15 K	1464.49 ± 0.64	1.43599 ± 0.00037	1205.4 ± 1.5	17.32 ± 0.38
328.15 K	1459.74 ± 0.64	1.43451 ± 0.00037	1194.9 ± 1.5	15.15 ± 0.33
333.15 K	1455.01 ± 0.63	1.43304 ± 0.00037	1184.6 ± 1.5	13.39 ± 0.29
338.15 K	1450.3 ± 0.63	1.4316 ± 0.00037	1174.3 ± 1.5	11.92 ± 0.26
343.15 K	1445.6 ± 0.62	1.43014 ± 0.00037	1164.2 ± 1.5	10.67 ± 0.23

CC[n+]1ccccc1C.O=S(=O)([N-]S(=O)(=O)C(F)(F)F)C(F)(F)F
Details	mass density, [1] [kg/m3]	refractive index, [2]	speed of sound, [1] [m/s]	viscosity, [1] [mPa·s]
293.15 K	1510.22 ± 0.69	1.44938 ± 0.00037	1310.9 ± 1.5	97.02 ± 2.8
298.15 K	1505.35 ± 0.68	1.44789 ± 0.00037	1299.5 ± 1.5	75.84 ± 1.9
303.15 K	1500.5 ± 0.68	1.4464 ± 0.00037	1288.5 ± 1.5	60.69 ± 1.3
308.15 K	1495.66 ± 0.67	1.44493 ± 0.00037	1277.3 ± 1.5	49.76 ± 1.1
313.15 K	1490.85 ± 0.67	1.44343 ± 0.00037	1266.3 ± 1.5	41.04 ± 0.9
318.15 K	1486.06 ± 0.66	1.44181 ± 0.00037	1255.4 ± 1.5	34.3 ± 0.75
323.15 K	1481.29 ± 0.66	1.44037 ± 0.00037	1244.6 ± 1.5	29.05 ± 0.63
328.15 K	1476.54 ± 0.65	1.4388 ± 0.00037	1234 ± 1.5	24.86 ± 0.54
333.15 K	1471.81 ± 0.65	1.43744 ± 0.00037	1223.4 ± 1.5	21.51 ± 0.47
338.15 K	1467.11 ± 0.64	1.43599 ± 0.00037	1213 ± 1.5	18.71 ± 0.41
343.15 K	1462.42 ± 0.64	1.43454 ± 0.00037	1202.7 ± 1.5	16.54 ± 0.36

CC[n+]1ccccc1.O=S(=O)([N-]S(=O)(=O)C(F)(F)F)C(F)(F)F [1-ethylpyridinium bis[(trifluoromethyl)sulfonyl]imide]
Details	mass density, [1] [kg/m3]	refractive index, [2]	speed of sound, [1] [m/s]	viscosity, [1] [mPa·s]
293.15 K	1540.83 ± 0.72	1.44227 ± 0.00037	1279.1 ± 1.5	50.27 ± 1
298.15 K	1535.84 ± 0.71	1.44091 ± 0.00037	1268.1 ± 1.5	41.08 ± 0.9
303.15 K	1530.87 ± 0.71	1.43939 ± 0.00037	1257.1 ± 1.5	34.17 ± 0.75
308.15 K	1525.92 ± 0.7	1.43788 ± 0.00037	1246.3 ± 1.5	28.79 ± 0.63
313.15 K	1520.99 ± 0.7	1.43637 ± 0.00037	1235.6 ± 1.5	24.58 ± 0.54
318.15 K	1516.08 ± 0.69	1.4349 ± 0.00037	1225 ± 1.5	21.18 ± 0.46
323.15 K	1511.2 ± 0.69	1.43339 ± 0.00037	1214.5 ± 1.5	18.48 ± 0.4
328.15 K	1506.34 ± 0.68	1.43193 ± 0.00037	1204.2 ± 1.5	16.26 ± 0.35
333.15 K	1501.5 ± 0.68	1.43048 ± 0.00037	1193.9 ± 1.5	14.35 ± 0.31
338.15 K	1496.67 ± 0.67	1.42905 ± 0.00037	1183.8 ± 1.5	12.79 ± 0.28
343.15 K	1491.87 ± 0.67	1.42762 ± 0.00037	1173.8 ± 1.5	11.48 ± 0.25
